In patent publication US10639299B2, “Calcium sensing receptors, ligands, compositions, and methods of use” (Georgia State University Research Foundation, Inc., priority 2016, dated 2020):

Target: T1, CaSR (Homo sapiens, UniProt P41180)
T1 sequence (P41180 20-1078): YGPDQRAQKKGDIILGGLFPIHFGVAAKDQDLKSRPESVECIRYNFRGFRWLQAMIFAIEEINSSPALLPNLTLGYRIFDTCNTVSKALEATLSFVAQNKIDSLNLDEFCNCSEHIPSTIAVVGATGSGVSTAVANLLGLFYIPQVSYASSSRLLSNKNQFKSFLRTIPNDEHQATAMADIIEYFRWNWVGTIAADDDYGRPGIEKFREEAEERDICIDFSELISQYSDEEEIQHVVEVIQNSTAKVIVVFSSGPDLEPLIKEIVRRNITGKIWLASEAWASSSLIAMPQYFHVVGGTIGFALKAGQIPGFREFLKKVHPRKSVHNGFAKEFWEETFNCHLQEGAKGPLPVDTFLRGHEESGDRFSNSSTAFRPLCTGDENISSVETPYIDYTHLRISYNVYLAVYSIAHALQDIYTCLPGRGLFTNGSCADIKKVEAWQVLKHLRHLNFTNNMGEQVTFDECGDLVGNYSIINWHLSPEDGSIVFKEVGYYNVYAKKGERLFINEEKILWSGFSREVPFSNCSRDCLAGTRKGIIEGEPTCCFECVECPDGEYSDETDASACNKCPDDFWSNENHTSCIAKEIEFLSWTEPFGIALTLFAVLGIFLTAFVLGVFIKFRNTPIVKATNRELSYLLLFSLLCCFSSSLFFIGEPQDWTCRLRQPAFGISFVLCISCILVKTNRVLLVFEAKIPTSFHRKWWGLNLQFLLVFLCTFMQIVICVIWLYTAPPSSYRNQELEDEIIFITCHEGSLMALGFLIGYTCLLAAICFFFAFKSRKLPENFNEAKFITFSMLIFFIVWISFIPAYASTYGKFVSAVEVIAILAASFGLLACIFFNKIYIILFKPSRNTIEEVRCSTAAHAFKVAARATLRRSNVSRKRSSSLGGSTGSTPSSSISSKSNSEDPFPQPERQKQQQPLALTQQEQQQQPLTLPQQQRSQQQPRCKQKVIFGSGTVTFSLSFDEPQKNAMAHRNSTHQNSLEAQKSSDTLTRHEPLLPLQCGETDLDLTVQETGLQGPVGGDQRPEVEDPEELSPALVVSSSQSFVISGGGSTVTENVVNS
Assay: [Ca^2+]i signaling (Fura-2) evoked by [Mg^2+]o/[Ca^2+]o in CaSR-expressing HEK293 cells (5001 cell population assay)
Format: cell-based
Design: expressed in transfected cells
Protocol: Measurement of intracellular free Ca^2+ was assessed as described by Huang, et al^33. Briefly, wild type CaSR, or its mutants, were transiently transfected into HEK293 cells grown on coverslips and cultured for 48 h. The cells were subsequently loaded for 15 min using 2 μM Fura-2 AM in 2 mL physiological saline buffer (10 mM HEPES, 140 mM NaCl, 5 mM KCl, 1.0 mM MgCl2 and pH 7.4). The coverslips were mounted in a bath chamber on the stage of a Leica DM6000 fluorescence microscope. The cells were alternately illuminated with 340 or 380 nm light, and the fluorescence at an emission wavelength 510 nm was recorded in real time as the [Ca^2+]o and/or [Mg^2+]o was increased in a stepwise manner in the presence or absence of 0.25 mM TNCA in buffer (10 mM HEPES, 155 mM NaCl, 5 mM KCl, 2 mM NaH2PO4, 0.5 mM MgCl2 and pH 7.4). The ratio of the emitted fluorescence intensities resulting from excitation at both wavelengths was utilized as a surrogate for changes in [Ca^2+]i and was further plotted and analyzed as a function of [Ca^2+]o. All experiments were performed at room temperature. The signals from 20 to 100 single cells were recorded for each measurement. Oscillations were identified as three successive fluctuations in [Ca^2+]i after the initial peak. Determination of the Effect of TNCA on Mg^2+-Evoked [Ca^2+]i Signaling by Stimulation of CaSR in Cell Populations.
Changes in the intracellular Ca^2+ concentration [Ca^2+ ]i elicited by extracellular Mg^2+ ([Mg^2+]o) in a population of cells were measured by fluorimetry as described previously^33. A cell line stably expressing CaSR (designated the “5001 cell line”) was seeded on 13.5×20-mm coverslips and cultured in DMEM. After reaching 95% confluence, cells were washed three times using loading buffer (20 mM HEPES [pH 7.4], 125 mM NaCl, 5 mM KCl, 1.25 mM CaCl2, 1 mM MgCl2, 1 mM NaH2PO4, 1% glucose, and 1% BSA) and subsequently incubated with 4 μM Fura-2 and 4 μM pluronic F127 for 20 minutes at 37° C. to enable sufficient dye loading in the same buffer. After removing the excess Fura-2, coverslips with cells were diagonally positioned in a quartz cuvette filled with 3 ml of experimental buffer (125 mM NaCl, 5 mM KCl, 0.5 mM CaCl2, 0.5 mM MgCl2, 1% glucose, and 1% BSA). Measurements of Fura-2 fluorescence at 510 nm when excited at 340 or 380 nm were performed on a QM1 fluorescence spectrophotometer (PTI). The emission ratio of 340/380 was calculated and used to reflect the changes in [Ca^2+]i when different concentrations of [Mg^2+]o were applied to the cells.
To examine the co-activation of CaSR by TNCA and [Mg^2+]o or [Ca^2+]o, different concentrations of TNCA were placed in the experimental buffer with a fixed concentration of [Ca^2+]o and varying concentrations of [Mg^2+]o, or vice versa, as described in the results section. The effects of other ligands were analyzed by comparing the changes in [Ca^2+ ]i produced by [Mg^2+]o alone or by co-application of Mg^2+ with other ligands. The EC50 of [Mg^2+]o obtained during incubation with various concentrations of TNCA is compared with that observed in the presence of [Mg^2+]o alone. The EC50 changes were plotted as a function of TNCA concentration and the curve was fit to the Hill equation. The activation of CaSR by the TNCA, functioning as a co-agonist with [Mg^2+]o, is indicated by the increasingly leftward-shifted EC50 for [Mg^2+]o as the concentration of TNCA increases (FIG. 6).

Question: For N[C@@H](Cc1ccccc1)C(=O)O [Phe, phenylalanine], which “effect on [Mg^2+]o activation of CaSR” value is on record?
Answer: The value was “further potentiated”.
